From article PMC6934184, “Selective DNA-PKcs inhibition extends the therapeutic index of localized radiotherapy and chemotherapy” (The Journal of Clinical Investigation, 2019)

Molecular target: T1, CSNK1E (CK1 epsilon) (Homo sapiens, UniProt P49674)
T1 construct: purchased Thermo Fisher Scientific (Life Technologies) SelectScreen
Experiment: SelectScreen Z'LYTE
Assay type: biochemical
How it was run: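 Percent values come from Thermo SelectScreen profiling of NU5455, combining activity and binding assays. CSF1R was run in Z'LYTE format at Km app ATP, and CAMK1 in Adapta format with ATP listed at 10.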

T1 sequence (P49674 whole entry): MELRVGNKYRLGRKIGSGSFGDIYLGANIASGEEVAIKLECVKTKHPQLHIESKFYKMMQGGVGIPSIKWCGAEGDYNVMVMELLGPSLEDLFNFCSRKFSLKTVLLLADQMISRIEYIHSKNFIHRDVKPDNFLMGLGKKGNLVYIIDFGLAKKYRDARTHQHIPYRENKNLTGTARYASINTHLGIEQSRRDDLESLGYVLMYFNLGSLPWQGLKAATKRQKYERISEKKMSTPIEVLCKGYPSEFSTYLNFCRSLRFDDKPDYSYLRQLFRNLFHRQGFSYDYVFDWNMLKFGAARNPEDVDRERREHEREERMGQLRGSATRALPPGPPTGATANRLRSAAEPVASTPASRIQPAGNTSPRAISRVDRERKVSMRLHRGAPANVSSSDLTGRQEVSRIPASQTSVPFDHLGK

CN(C(=O)CN1CCOCC1)c1ccc2sc3c(-c4cccc5c(=O)cc(N6CC7CCC(C6)O7)oc45)cccc3c2c1 [NU5455]
inhibition at 1 µM: -10.9%
